Assay results as given in BigSolDB 2.1.

## C[C@@H]1O[C@@H]1P(=O)([O-])[O-].[Na+].[Na+]
In DMF, 283.15 K
  solubility (mole fraction): 0.000606
In DMF, 288.15 K
  solubility (mole fraction): 0.000532
In DMF, 293.15 K
  solubility (mole fraction): 0.000481
In DMF, 298.15 K
  solubility (mole fraction): 0.000443
In DMF, 303.15 K
  solubility (mole fraction): 0.000396
In DMF, 308.15 K
  solubility (mole fraction): 0.000358
In DMF, 313.15 K
  solubility (mole fraction): 0.000339
In DMF, 318.15 K
  solubility (mole fraction): 0.000312
In DMF, 323.15 K
  solubility (mole fraction): 0.000291
In acetone, 283.15 K
  solubility (mole fraction): 0.000186
In acetone, 288.15 K
  solubility (mole fraction): 0.00016
In acetone, 293.15 K
  solubility (mole fraction): 0.000138
In acetone, 298.15 K
  solubility (mole fraction): 0.000115
In acetone, 303.15 K
  solubility (mole fraction): 9.72e-05
In acetone, 308.15 K
  solubility (mole fraction): 8.3e-05
In acetone, 313.15 K
  solubility (mole fraction): 7.09e-05
In acetone, 318.15 K
  solubility (mole fraction): 6.07e-05
In acetone, 323.15 K
  solubility (mole fraction): 5.47e-05
In cyclohexane, 283.15 K
  solubility (mole fraction): 0.000403
In cyclohexane, 288.15 K
  solubility (mole fraction): 0.000353
In cyclohexane, 293.15 K
  solubility (mole fraction): 0.0003
In cyclohexane, 298.15 K
  solubility (mole fraction): 0.000252
In cyclohexane, 303.15 K
  solubility (mole fraction): 0.000226
In cyclohexane, 308.15 K
  solubility (mole fraction): 0.000196
In cyclohexane, 313.15 K
  solubility (mole fraction): 0.000175
In cyclohexane, 318.15 K
  solubility (mole fraction): 0.000151
In cyclohexane, 323.15 K
  solubility (mole fraction): 0.000128
In ethanol, 283.15 K
  solubility (mole fraction): 0.00109
In ethanol, 288.15 K
  solubility (mole fraction): 0.000934
In ethanol, 293.15 K
  solubility (mole fraction): 0.000769
In ethanol, 298.15 K
  solubility (mole fraction): 0.000643
In ethanol, 303.15 K
  solubility (mole fraction): 0.000548
In ethanol, 308.15 K
  solubility (mole fraction): 0.000463
In ethanol, 313.15 K
  solubility (mole fraction): 0.000383
In ethanol, 318.15 K
  solubility (mole fraction): 0.000316
In ethanol, 323.15 K
  solubility (mole fraction): 0.000266
In methanol, 283.15 K
  solubility (mole fraction): 0.0177
In methanol, 288.15 K
  solubility (mole fraction): 0.0165
In methanol, 293.15 K
  solubility (mole fraction): 0.0152
In methanol, 298.15 K
  solubility (mole fraction): 0.0138
In methanol, 303.15 K
  solubility (mole fraction): 0.0129
In methanol, 308.15 K
  solubility (mole fraction): 0.0121
In methanol, 313.15 K
  solubility (mole fraction): 0.0111
In methanol, 318.15 K
  solubility (mole fraction): 0.0105
In methanol, 323.15 K
  solubility (mole fraction): 0.00984
In n-propanol, 283.15 K
  solubility (mole fraction): 0.000108
In n-propanol, 288.15 K
  solubility (mole fraction): 8.01e-05
In n-propanol, 293.15 K
  solubility (mole fraction): 6.19e-05
In n-propanol, 298.15 K
  solubility (mole fraction): 4.52e-05
In n-propanol, 303.15 K
  solubility (mole fraction): 3.09e-05
In n-propanol, 308.15 K
  solubility (mole fraction): 1.95e-05
In n-propanol, 313.15 K
  solubility (mole fraction): 1.34e-05
In n-propanol, 318.15 K
  solubility (mole fraction): 1.04e-05
In n-propanol, 323.15 K
  solubility (mole fraction): 7.1e-06
